Series [1] is described as follows: solubility of substance A compared to substance B. In kind it is physicochemical. The procedure:
Solubility of substance A compared to substance B (g/l at 20° C.): […]

For another series, the system named is Escherichia coli. Briefly: action against bacteria, MIC (bouillon agar). In kind it is cell-based. The following applies: 336 h. The procedure:
An agar, containing bouillon as a nutrient medium, is treated with the active agents A and B (Example 2) given in Table II at concentrations from 1 to 5,000 ppm. The nutrient medium is then inoculated with either Escherichia coli or Staphylococcus aureus and the inoculated medium is maintained for 2 weeks at 28° C. and 60 to 70% relative atmospheric humidity. The MIC is the lowest concentration of active agent with which no growth by the type of microbe used ensues.

Another series has as its system Cladosporium herbarum. Briefly: minimum inhibitory concentration against fungi (agar). The class given is cell-based. The following applies: 336 h. The procedure:
(§1) An agar prepared from beer wort and peptone is mixed with the substance according to the invention at concentrations from 0.5 mg/l to 5,000 mg/l.
(§2) After storage for 2 weeks at 28° C. and 60 to 70% relative atmospheric humidity, the MIC is determined. The MIC is the lowest concentration of active agent with which no growth by the type of microbe used ensues; it is given in the table below.

The test system of the next series is Penicillium glaucum. The description is as above. The class given is cell-based. Particulars: 336 h. The procedure: as §1, §2
A further series deals with Stachybotris atra C. The series is described as above. In kind it is cell-based. The following applies: 336 h. The procedure: as §1, §2
The next series concerns Coniophora cerebella. The description is as above. In kind it is cell-based. Particulars: 336 h. The procedure:
as §1, §2

A further series relates to Pullularia pullulans. The description is as above. In kind it is cell-based. Particulars: 336 h. How it is done:
as §1, §2

For a further series, the system named is Aspergillus niger. Described as above. The class given is cell-based. Particulars: 336 h. How it is done:
as §1, §2

The subject of the next series is Trichoderma viride. The series is described as above. In kind it is cell-based. Particulars: 336 h. How it is done:
as §1, §2

A further series concerns Alternaria tenuis. The series is described as above. The class given is cell-based. Particulars: Alternaria alternata, 336 h. How it is done: as §1, §2
The next series concerns Penicillium citrinum. The series is described as above. In kind it is cell-based. The following applies: 336 h. The procedure:
as §1, §2

A further series concerns Paecilomyces varioti. Described as above. In kind it is cell-based. The following applies: 336 h. The procedure:
as §1, §2

Where [2] appears, read: beer wort/peptone agar, 2 weeks at 28° C., 60 to 70% relative humidity, read-out: MIC.

By Solubility is commonly meant the concentration that dissolves in the medium under given conditions. A low value points to a poorly soluble substance. For orientation: MIC means the lowest concentration found to suppress growth.

Values after ≈ are worked out from the molar mass of the structure shown. Like-named read-outs stand apart in the source and are kept apart here. Bounds are passed on as bounds.

Regarding `O=C1C2C3C=CC(C3)C2C(=O)N1SC(F)(Cl)Cl` (stereo not shown) [A], the Solubility in series [1] (Ethyl acetate, 20° C.) stood at 330 mg/mL (≈ 1110 mM); in series [1] (Shellsol AB, 20° C.) it was 140 mg/mL (≈ 473 mM); in series [1] (Solvesso 100, 20° C.) it was 200 mg/mL (≈ 675 mM); in series [1] (Xylene, 20° C.), 250 mg/mL (≈ 844 mM). The “solubility properties (in words)” value in series [1] (particularly when compared to substance B) was “very good solubility properties”. Further, the minimal inhibitory concentration (MIC) in the series on Escherichia coli (bouillon agar, 2 weeks at 28° C., 60 to 70% relative humidity, read-out: MIC) was 200 µg/mL (≈ 0.675 mM); in the series with Cladosporium herbarum (setting [2]) it was 7 µg/mL (≈ 0.0236 mM); in the series with Penicillium glaucum (Penicillium glaucum, beer wort/peptone agar, 2 weeks at 28° C., 60 to 70% relative humidity, read-out: MIC), 10 µg/mL (≈ 0.0338 mM); in the series with Stachybotris atra C. (Stachybotris atra C., beer wort/peptone agar, 2 weeks at 28° C., 60 to 70% relative humidity, read-out: MIC) it was 15 µg/mL (≈ 0.0507 mM); with Coniophora cerebella (setting [2]), < 1 µg/mL; in the series on Pullularia pullulans (Pullularia pullulans, beer wort/peptone agar, 2 weeks at 28° C., 60 to 70% relative humidity, read-out: MIC) it was 5 µg/mL (≈ 0.0169 mM). Moreover, the MIC in the series with Aspergillus niger (setting [2]) amounted to 200 µg/mL (≈ 0.675 mM); with Trichoderma viride (setting [2]), 200 µg/mL (≈ 0.675 mM); in the series with Alternaria tenuis (Alternaria tenuis, beer wort/peptone agar, 2 weeks at 28° C., 60 to 70% relative humidity, read-out: MIC), 10 µg/mL (≈ 0.0338 mM); with Penicillium citrinum (setting [2]), 7 µg/mL (≈ 0.0236 mM); with Paecilomyces varioti (Paecilomyces varioti, beer wort/peptone agar, 2 weeks at 28° C., 60 to 70% relative humidity, read-out: MIC), 10 µg/mL (≈ 0.0338 mM).

`CN(C)S(=O)(=O)N(SC(F)(Cl)Cl)c1ccccc1` [B]: the Solubility was determined as 117 mg/mL (≈ 351 mM) in series [1] (Ethyl acetate, 20° C.); 60 mg/mL (≈ 180 mM) in series [1] (Shellsol AB, 20° C.); 75 mg/mL (≈ 225 mM) in series [1] (Solvesso 100, 20° C.); 65 mg/mL (≈ 195 mM) in series [1] (Xylene, 20° C.). In addition, the MIC against Escherichia coli turned out to be 500 µg/mL (≈ 1.5 mM); against Cladosporium herbarum, 35 µg/mL (≈ 0.105 mM); in the series with Penicillium glaucum (Penicillium), 35 µg/mL (≈ 0.105 mM); in the series on Stachybotris atra C. it was 50 µg/mL (≈ 0.15 mM); in the series with Coniophora cerebella, 10 µg/mL (≈ 0.03 mM); against Pullularia pullulans, 20 µg/mL (≈ 0.06 mM). Also, the MIC was determined as 50 µg/mL (≈ 0.15 mM) against Aspergillus niger; 5000 µg/mL (≈ 15 mM) in the series on Trichoderma viride; 20 µg/mL (≈ 0.06 mM) in the series on Alternaria tenuis; 150 µg/mL (≈ 0.45 mM) in the series with Penicillium citrinum; 20 µg/mL (≈ 0.06 mM) in the series on Paecilomyces varioti (Paecilomyces).
